The test has as its system L-6 rat myocyte cytotoxicity, plate reader. Kind of test: cytotoxicity in L-6 rat myocytes, dose response, cytotoxicity control, cell-based, plate reader, cherry-pick (AID 651896).

Regarding `C[C@@H]1CN([C@@H](C)CO)C(=O)c2cccc(NC(=O)c3ccncc3)c2O[C@H]1CN(C)Cc1ccc(Oc2ccccc2)cc1`, the IC50 – broadly, the concentration that gives 50% inhibition – was 10.8 µM.

Values taken from PubChem BioAssay AID651896 (Broad Institute, 2012).
